Laboratory results as given in patent publication EP3829579B1, “1,3,8-TRIAZASPIRO COMPOUNDS AND THEIR USE AS MEDICAMENTS FOR THE TREATMENT OF REPERFUSION INJURY” (Maria Cecilia Hospital S.p.A., priority 2018, dated 2020).

How the values were obtained:
[1] = system: ATP synthesis; assay: luciferin-luciferase assay of mitochondrial ATP; assay type: cell-based; details: living cells, basal conditions and following Ca2+-dependent stimulus
Source text: (§1) The data were obtained by recording the absorbance changes at 540 nm at the tenth minute of measurement, and subsequently converted to a percentage. Black bar: untreated and unstimulated mitochondria; black control bar: untreated and Ca2+ stimulated mitochondria; dark grey bar: pre-treatment with CsA and stimulation with Ca2+; light bar: pre-treatment with RR and stimulation with Ca2+; first white bar from the top: treatment with compound 1 and stimulation with Ca2+; white bars: pre-treatment with the compounds of the invention and stimulation with Ca2+. […] The subcellular localization of compound 1 was studied by HPLC-HRMS analysis of samples from different cellular compartments, before and after treatment with the compound. […] The grey region of the HPLC spectrum corresponds to a single mass peak at [M+1]+ m/z of 386.1534 (lower panel, [M+H]+ calculated for compound 1 = 386.1533). […] The grey band of the HPLC spectrum corresponds to a mixture of mass peaks detected through the HRMS analysis (lower panel). C: HPLC-HRMS profile of the mitochondrial fraction isolated from cells pre-treated with compound 1 which clearly indicates the presence of the compound with an HPLC band at a retention time of 8.2 min (upper panel). The grey area of the signal corresponds to a mixture of mass peaks (lower panel) among which [M+1]+ m/z of 386.1534, which identifies the undetectable compound 1 in the corresponding untreated fraction (panel B). […] A: Content of mitochondrial ATP in living cells under basal conditions, evaluated based on the luciferase-luciferin protocol. B: Mitochondrial ATP production following stimulation by a Ca2+ dependent agonist. "Histamine" indicates stimulus with histamine. C: MTT cell viability assay after 24h, 48h and 72h of treatment of live cells with compounds of Formula (I) at different concentrations. In particular, black bar: cells treated with vehicle; dotted bars: compound at the concentration of 1 µM; bars with small black and white squares: compound at a concentration of 5 µM; bars with large black and white squares: compound at a concentration of 10 µM. A standardization was carried out with respect to the vehicle. […] A: Diagram depicting an experiment on an isolated rat heart by the Langendorff system. B: Coronary artery perfusion pressure (CPP) recorded on rat heart in conditions of stabilization, ischemia and reperfusion. C: Pressure developed by the left ventricle (LVPdp) recorded under the same conditions as B. D: End-diastolic pressure recorded in the same conditions as B and C. E: TUNEL apoptotic assay for the evaluation of the cardioprotective effect in cardiomyocytes of the heart.**:p value<0.01; ****:p value<0.0001.
(§2) Compounds 5c, 6g and 10 resulted to be very potent in inhibiting mPTP in the in vitro tests. In order to identify any side effects in the use of these compounds in living cells that could exclude their future development in therapy, and given the crucial role of the C subunit of the ATP synthase in energy production, two important parameters were evaluated, such as cell viability and mitochondrial ATP content, in basal conditions and following Ca^2+-dependent stimulus (Figure 5A-C).

[2] = system: mPTP; assay: mitochondrial swelling assay (absorbance at 540 nm, Ca2+ stimulation); assay type: biochemical; details: mitochondria isolated from mouse liver, monitored for 10 minutes
Source text: as §1, with “E: TUNEL apoptotic assay for the evaluation of the cardioprotective effect in cardiomyocytes of the heart.**:p value<0.01; ****:p value<0.0001.” left out
Mitochondria isolated from mouse liver were checked for purity (Figure 3A) and functionality thereof, and then stimulated with Ca^2+; the decrease in absorbance at 540 nm, indicative of mitochondrial swelling, was monitored for 10 minutes.

[3] = system: mPTP; assay: cobalt-calcein assay of Ca2+-induced mPTP opening in HeLa cells (ionomycin stimulation); assay type: cell-based; details: pre-treatment 1 µM, assessed by the kinetics slope
[4] = subcellular fractionation with HPLC-HRMS detection (subcellular localization); assay type: cell-based; details: cells pre-treated with compound, mitochondria, cytosol and endoplasmic reticulum fractions
Source text: The data were obtained by recording the absorbance changes at 540 nm at the tenth minute of measurement, and subsequently converted to a percentage. Black bar: untreated and unstimulated mitochondria; black control bar: untreated and Ca2+ stimulated mitochondria; dark grey bar: pre-treatment with CsA and stimulation with Ca2+; light bar: pre-treatment with RR and stimulation with Ca2+; first white bar from the top: treatment with compound 1 and stimulation with Ca2+; white bars: pre-treatment with the compounds of the invention and stimulation with Ca2+. […] The grey region of the HPLC spectrum corresponds to a single mass peak at [M+1]+ m/z of 386.1534 (lower panel, [M+H]+ calculated for compound 1 = 386.1533). […] The grey band of the HPLC spectrum corresponds to a mixture of mass peaks detected through the HRMS analysis (lower panel). […] A: Content of mitochondrial ATP in living cells under basal conditions, evaluated based on the luciferase-luciferin protocol. […] B: Coronary artery perfusion pressure (CPP) recorded on rat heart in conditions of stabilization, ischemia and reperfusion. C: Pressure developed by the left ventricle (LVPdp) recorded under the same conditions as B. D: End-diastolic pressure recorded in the same conditions as B and C. […]

[5] = system: live cells; assay: MTT cell viability assay; assay type: cell-based; details: micromolar concentrations (1, 5, 10 µM); for reduction of MTT compared to the control: 24h and 48h; for effect on cell viability (MTT): after 72h
Source text: (§3) The data were obtained by recording the absorbance changes at 540 nm at the tenth minute of measurement, and subsequently converted to a percentage. Black bar: untreated and unstimulated mitochondria; black control bar: untreated and Ca2+ stimulated mitochondria; dark grey bar: pre-treatment with CsA and stimulation with Ca2+; light bar: pre-treatment with RR and stimulation with Ca2+; first white bar from the top: treatment with compound 1 and stimulation with Ca2+; white bars: pre-treatment with the compounds of the invention and stimulation with Ca2+. […] The subcellular localization of compound 1 was studied by HPLC-HRMS analysis of samples from different cellular compartments, before and after treatment with the compound. […] The grey region of the HPLC spectrum corresponds to a single mass peak at [M+1]+ m/z of 386.1534 (lower panel, [M+H]+ calculated for compound 1 = 386.1533). […] The grey band of the HPLC spectrum corresponds to a mixture of mass peaks detected through the HRMS analysis (lower panel). C: HPLC-HRMS profile of the mitochondrial fraction isolated from cells pre-treated with compound 1 which clearly indicates the presence of the compound with an HPLC band at a retention time of 8.2 min (upper panel). The grey area of the signal corresponds to a mixture of mass peaks (lower panel) among which [M+1]+ m/z of 386.1534, which identifies the undetectable compound 1 in the corresponding untreated fraction (panel B). […] A: Content of mitochondrial ATP in living cells under basal conditions, evaluated based on the luciferase-luciferin protocol. B: Mitochondrial ATP production following stimulation by a Ca2+ dependent agonist. "Histamine" indicates stimulus with histamine. C: MTT cell viability assay after 24h, 48h and 72h of treatment of live cells with compounds of Formula (I) at different concentrations. […] B: Coronary artery perfusion pressure (CPP) recorded on rat heart in conditions of stabilization, ischemia and reperfusion. C: Pressure developed by the left ventricle (LVPdp) recorded under the same conditions as B. D: End-diastolic pressure recorded in the same conditions as B and C. […]
as §2

[6] = system: release of cytochrome C (Cyt.C) from the mitochondria; assay: detection of cytochrome c in the mitochondrial fraction under Ca2+-dependent stress; assay type: cell-based; details: Ca2+-dependent stress conditions
[7] = system: rat isolated heart; assay: isolated rat heart ischemia-reperfusion (Langendorff system), with TUNEL assay; assay type: in vivo; details: ex vivo
Source text: as §3
Considering the potential of the inhibitors claimed herein in relation to: i) ability to desensitize the opening of mPTP; ii) ability to protect against cell death by inhibiting the release of Cyt.C; iii) ability to preserve cell viability, and iv) mitochondrial ATP content, the effects of compound 10 were studied in an animal model of cardiac ischemia-reperfusion. […] At the end of the procedure, the hearts were also analyzed for cell death by terminal deoxynucleotidyl transferase dUTP nick-end labelling (TUNEL) assay.

[8] = 10 µM constant-volume perfusion during the first 10 minutes of reperfusion, 30 minutes ischemia, 1 hour reperfusion

Row | Structure (SMILES) | proton flow and ATP synthesis / ATP levels [1] | inhibition of Ca2+-induced mPTP opening (mitochondrial swelling, decrease in absorbance at 540 nm) [2] | reduction of MTT compared to the control [5] | effect on cell viability (MTT) [5] | release of Cyt.C from the mitochondria [6] | other results
1 | CC[C@H]1/C=C/C=C/C[C@@H](C)[C@H](O)[C@@](C)(O)C(=O)[C@@H](C)[C@H](O)[C@@H](C)C(=O)[C@@H](C)[C@H](O)[C@@H](C)/C=C/C(=O)O[C@@H]2[C@H](C)[C@H](CC1)O[C@]1(CC[C@H](C)[C@H](C[C@@H](C)O)O1)[C@H]2C [Oligomycin, reference compound] | significantly inhibited |  |  |  |  | 
2 | N.N.N.N.N.N.N.N.N.N.N.N.N.N.[Cl-].[Cl-].[Cl-].[Cl-].[Cl-].[Cl-].[O-2].[O-2].[Ru+3].[Ru+3].[Ru+4] [RR, Red Ruthenium, reference compound] |  | prevented |  |  |  | 
3 | Cc1ccc(S(=O)(=O)N2CCC3(CC2)C(=O)NCN3c2ccccc2)cc1 [compound 1, 1-phenyl-8-tosyl-1,3,8-triazaspiro[4.5]decan-4-one] | significantly inhibited |  |  |  |  | desensitization of the mPTP opening [3]: about 50%; subcellular localization [4]: selective accumulation of the compound in the mitochondria
4 | O=C1N=CN(c2ccc(Cl)cc2)C12CCN(Cc1ccccc1)CC2 [compound 5c, 8-benzyl-1-(4-chlorophenyl)-1,3,8-triazaspiro[4.5]dec-2-en-4-one] | did not reduce ATP levels | significantly more performing than compound 1 | did not induce a significant reduction | some negative effect | prevent the release of Cyt.C | 
5 | O=C1NCN(c2cccc(C(F)(F)F)c2)C12CCN(Cc1ccccc1)CC2 [compound 6g, 8-benzyl-1-(3-(trifluoromethyl)phenyl)-1,3,8-triazaspiro[4.5]decan-4-one] | did not reduce ATP levels | significantly more performing than compound 1 |  |  | prevent the release of Cyt.C | 
6 | O=C1NCN(c2ccccc2)C12CCN(S(=O)(=O)c1ccc(Cl)s1)CC2 [compound 10, 8-((5-chlorotiophen-2-yl)sulfonyl)-1-phenyl-1,3,8-triazaspiro[4.5]decan-4-one] | did not reduce ATP levels | significantly more performing than compound 1 | did not induce a significant reduction | some negative effect | prevent the release of Cyt.C | coronary perfusion pressure (CPP) [7, 8]: decrease; diastolic pressure (EDP) [7, 8]: decrease; diastolic pressure of the left ventricle (LVEDP) [7, 8]: increased; percentage of cardiomyocytes positive for TUNEL (apoptotic) ([7]; 10µM, hearts at the end of the procedure, 64% positive without compound): significantly reduced
